Values joined by “and” are separate entries in the source; they are usually repeats but may differ in a detail not shown here. Identical values can stand only once. Counter-ions that a name gives are not always drawn.
Assays:
[1] = set-up: method as in PMID 28188808; details: 0.065 mmol Dox per milliliter of beads, constant agitation, depending on bead size; cited from earlier work
[2] = Drug solubilization by salt formation in acid; assay type: physicochemical; details: T in °C in parentheses in the cell (20.1 or 21.1)
Outline: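 Drug base suspended in water and titrated with 0.1 N HCl until dissolved, at a final 2.5 mg/mL; solution lyophilized to the hydrochloride salt or used directly for DC Bead LUMI loading. GS-9620 and its decomposition product analyzed by C8 reversed-phase HPLC (UV 230 nm) and LC/MS.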

[3] = Drug release from DC Bead LUMI in saline; assay type: physicochemical; details: for drug eluted from DC Bead LUMI: saline, single replicates
Outline: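 Beads loaded with drug (62.5 µL of DC Bead LUMI) were placed in 50 mL of saline (0.9 mg/mL, pH 7.4) and rocked upright at 37 °C at speed setting 10 (70 rpm). At each sampling time, 1 mL of medium was taken for drug quantification and replaced with 1 mL of fresh saline pre-warmed to 37 °C. Cumulative release accounted for drug removed in earlier samples, and the 50 mL volume kept sink conditions.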

[4] = Drug loading into DC Bead LUMI; assay type: physicochemical; details: for Maximum drug loaded: n = 3, base form except Dox (salt form); for Theoretical maximum loading level based on SO3− contents: per mL DC Bead LUMI, assuming 1:1 drug to sulfonate
Outline: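 Loading done in triplicate; amount loaded = initial drug in loading solution minus drug remaining and cumulative drug withdrawn for sampling. Maximum loading taken when loading-solution concentration stopped changing, before washing; relative % loading expressed on a molar basis against available SO3^- ions, mean ± SD.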

[5] = set-up: method as in PMID 17483878; details: cited from earlier work
[6] = Drug loading into LC Bead; assay type: physicochemical; details: per 1 mL LC Bead
Method: Drug loading was performed in triplicate as previously reported[45] with slight modifications. Briefly, 1.3 molar equivalent of each drug was mixed with one molar equivalent of sulfonate group of DC Bead LUMI or LC Bead. The drug-bead mixture was agitated with upright rocking motion at a set maximum rocking speed of 10 which corresponds to 70 rpm, for 144 h at ambient temperature (Ward's® Rotating Mixers, VWR, Bridgeport, NJ). At specified time points (5, 15, 30 and 45 min and then hourly for eight hours followed by 24, 48, 72 and 144 h) a 10 µL aliquot was withdrawn from the loading solution to quantify drug loading based on the change in concentration over time. […] The concentration of drug in each aliquot of loading solution at each time point was quantified by HPLC as described above using a linear standard curve obtained from solutions of known concentration of each drug (7.8–125 μg/mL) versus the detector response as area under the curve. The amount of drug loaded at the specified time points was calculated by subtracting the amount of drug remaining from the initial amount of drug in the loading solution and the cumulative amount of drug withdrawn for sampling. The maximum drug loaded in the beads was calculated once no further change in the concentration in the loading solution could be measured and before washing the beads. […]

For `COc1cccc2c1C(=O)c1c(O)c3c(c(O)c1C2=O)C[C@@](O)(C(=O)CO)C[C@@H]3O[C@H]1C[C@H](N)[C@H](O)[C@H](C)O1` [Dox, doxorubicin hydrochloride], the “time to load drug to DC Bead LUMI” value [1] is given as 2 to 3 h, the “pH at which each drug dissolved for loading” value [2] is given as 4.2 (21.1) and the “drug eluted from DC Bead LUMI” value ([3]; 5 min) is given as 0.8697 µmol and 0.7574 µmol and 0.6743 µmol. The “drug eluted from DC Bead LUMI” value ([3]; 15 min) was 0.9785 µmol and 0.9763 µmol and 0.879 µmol, the “drug eluted from DC Bead LUMI” value ([3]; 30 min) was 1.239 µmol and 1.282 µmol and 1.112 µmol and the “drug eluted from DC Bead LUMI” value ([3]; 45 min) was 1.546 µmol and 1.5359 µmol and 1.496 µmol. The “drug eluted from DC Bead LUMI” value ([3]; 60 min) was 1.899 µmol and 1.906 µmol and 1.678 µmol, the “drug eluted from DC Bead LUMI” value ([3]; 120 min) was 3.985 µmol and 3.46 µmol and 3.165 µmol and the “drug eluted from DC Bead LUMI” value ([3]; 180 min) was 6.141 µmol and 6.4405 µmol and 5.733 µmol. The “drug eluted from DC Bead LUMI” value ([3]; 240 min) was 7.976 µmol and 7.077 µmol and 7.054 µmol, the “drug eluted from DC Bead LUMI” value ([3]; 300 min) was 9.987 µmol and 9.178 µmol and 9.242 µmol and the “drug eluted from DC Bead LUMI” value ([3]; 360 min) was 12.6965 µmol and 11.2108 µmol and 10.9569 µmol. The “drug eluted from DC Bead LUMI” value ([3]; 420 min) was 14.5125 µmol and 12.8898 µmol and 12.4195 µmol, the “drug eluted from DC Bead LUMI” value ([3]; 480 min) was 16.4266 µmol and 14.4776 µmol and 14.2688 µmol and the “drug eluted from DC Bead LUMI” value ([3]; 1440 min) was 47.172 µmol and 44.3546 µmol and 42.6335 µmol. The “drug eluted from DC Bead LUMI” value ([3]; 2880 min) was 68.0842 µmol and 61.0855 µmol and 60.2496 µmol, the “drug eluted from DC Bead LUMI” value ([3]; 4320 min) was 76.8802 µmol and 71.2335 µmol and 68.2708 µmol and the “drug eluted from DC Bead LUMI” value ([3]; 8640 min) was 74.6523 µmol and 73.8043 µmol and 71.6405 µmol. For the same molecule, the “release behaviour in saline” value ([3]; DC Bead LUMI) was “slow release”, the “Dox released from DC Bead LUMI” value ([3]; Figure 11 legend, mean ± SD, n = 3) was 74.4 ± 0.5 µmol Dox/ mL DC Bead LUMI and the “drug loaded above the predicted capacity of the bead” value ([4]; DC Bead LUMI) was “approximately 23%”. For the same molecule, the “loading behaviour” value ([4]; DC Bead LUMI) was “slower loading”, the “equivalent of drug loaded to sulfonated bead” value ([4]; DC Bead LUMI, mean ± SD) was 0.35 ± 0.01 mM drug/ml beads and the Maximum drug loaded ([4]; DC Bead LUMI, mean ± SD) was 204.54 ± 3.87 mg drug/ml beads and 205 ± 4 mg drug/ml beads. For the same molecule, the Maximum drug loaded ([4]; DC Bead LUMI, mean ± SD, listed as Doxorubicin HCl) was 204.54 ± 3.87 mg drug/ml beads, the “Maximum drug loaded (Triplicate), %” value ([4]; DC Bead LUMI, single replicates) was 121.32% and 125.547% and 121.757% and the “Drug: sulfonate” value ([4]; molar ratio at maximum loading, DC Bead LUMI) was 1.228. The “Theoretical maximum loading level based on SO3− contents” value [4] was 166.50 mg, the “Theoretical maximum loading level based on SO3− contents” value ([4]; listed as Doxorubicin HCl) was 166.5 mg and the “previously reported amount of Dox loaded into LC Bead” value [5] was 39.0 ± 3.8 mg/mL. For the same molecule, the “average amount of Dox loaded into 1 mL of LC Bead” value [6] was 33.58 ± 3.08 mg.

From PMC9763333, “In vitro characterization of immune modulating drug-eluting immunobeads towards transarterial embolization in cancer” (Scientific Reports, 2022)
